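Exposure lasted 48 hours, with cells grown in 96-well plates and compounds tested at five concentrations. Here, GI50 denotes the concentration required for 50% inhibition of growth. The concentration for full growth arrest is given as TGI.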
Columns and labels:
Experiment in all cases: NCI-60 cell line screen, 48 h
[1] = tested on: OVCAR-5 ovarian
[2] = tested on: ACHN renal
[3] = tested on: MDA-MB-231 breast
[4] = tested on: CCRF-CEM leukemia
[5] = tested on: NCI-H226 lung
[6] = tested on: SF-268 CNS
[7] = tested on: U251 CNS
[8] = tested on: HS 578T breast
[9] = tested on: NCI-H522 lung
[10] = tested on: SK-OV-3 ovarian
[11] = tested on: SR leukemia
[12] = tested on: SN12C renal
[13] = tested on: HCC-2998 colon
[14] = tested on: HCT-116 colon
[15] = tested on: HOP-92 NSCLC
[16] = tested on: SK-MEL-2 melanoma
[17] = tested on: DU-145 prostate
[18] = tested on: NCI/ADR-RES ovarian
[19] = tested on: SNB-19 CNS
[20] = tested on: OVCAR-4 ovarian
[21] = tested on: BT-549 breast
[22] = tested on: UACC-257 melanoma
[23] = tested on: OVCAR-3 ovarian
[24] = tested on: SK-MEL-5 melanoma
[25] = tested on: KM12 colon
[26] = tested on: CAKI-1 renal
[27] = tested on: LOX IMVI melanoma
[28] = tested on: MCF7 breast
[29] = tested on: SK-MEL-28 melanoma
[30] = tested on: SF-295 CNS
[31] = tested on: NCI-H23 lung
[32] = tested on: MOLT-4 leukemia
[33] = tested on: SF-539 CNS
[34] = tested on: OVCAR-8 ovarian
[35] = tested on: HL-60(TB) leukemia
[36] = tested on: RPMI-8226 leukemia
[37] = tested on: SNB-75 CNS
[38] = tested on: A549 NSCLC
[39] = tested on: TK-10 renal
[40] = tested on: UACC-62 melanoma
[41] = tested on: PC-3 prostate
[42] = tested on: UO-31 renal
[43] = tested on: EKVX NSCLC
[44] = tested on: A498 renal
[45] = tested on: MALME-3M melanoma
[46] = tested on: M14 melanoma
[47] = tested on: 786-0 renal

SMILES: Cc1cc2cn3c4ccc(O)cc4nc(N)c3c2cc1C
- GI50 [1]: 1110 nM
- TGI [1]: 11500 nM
- GI50 [2]: < 30.7 nM
- TGI [2]: 1880 nM
- GI50 [3]: 350 nM
- TGI [3]: 1690 nM
- GI50 [4]: 16.3 nM
- TGI [4]: 2130 nM
- GI50 [5]: 502 nM
- TGI [5]: 19200 nM
- GI50 [6]: 197 nM
- TGI [6]: 5420 nM
- GI50 [7]: < 10 nM
- TGI [7]: 1390 nM
- GI50 [8]: 170 nM
- TGI [8]: 11000 nM
- GI50 [9]: 17.5 nM
- TGI [9]: 293 nM
- GI50 [10]: 233 nM
- TGI [10]: 5000 nM
- GI50 [11]: < 28.4 nM
- TGI [11]: 1740 nM
- GI50 [12]: 172 nM
- TGI [12]: 1890 nM
- GI50 [13]: 539 nM
- TGI [13]: 3780 nM
- GI50 [14]: < 10 nM
- TGI [14]: 1320 nM
- GI50 [15]: 4890 nM
- TGI [15]: 22300 nM
- GI50 [16]: < 10 nM
- TGI [16]: 1340 nM
- GI50 [17]: 53.5 nM
- TGI [17]: 1630 nM
- GI50 [18]: < 20.4 nM
- TGI [18]: 498 nM
- GI50 [19]: 146 nM
- TGI [19]: 18600 nM
- GI50 [20]: 1490 nM
- TGI [20]: 14400 nM
- GI50 [21]: 2220 nM
- TGI [21]: 20400 nM
- GI50 [22]: 1110 nM
- TGI [22]: 3080 nM
- GI50 [23]: < 17.6 nM
- TGI [23]: 1700 nM
- GI50 [24]: < 10 nM
- TGI [24]: 137 nM
- GI50 [25]: < 10 nM
- TGI [25]: 2450 nM
- GI50 [26]: 176 nM
- TGI [26]: 5130 nM
- GI50 [27]: < 10 nM
- TGI [27]: 1580 nM
- GI50 [28]: 429 nM
- TGI [28]: 1760 nM
- GI50 [29]: 96.1 nM
- TGI [29]: 2100 nM
- GI50 [30]: 150 nM
- TGI [30]: 1280 nM
- GI50 [31]: 266 nM
- TGI [31]: 5090 nM
- GI50 [32]: 82.8 nM
- TGI [32]: 2480 nM
- GI50 [33]: 221 nM
- TGI [33]: 1050 nM
- GI50 [34]: 180 nM
- TGI [34]: 1490 nM
- GI50 [35]: 33.1 nM
- TGI [35]: 1210 nM
- GI50 [36]: 71.3 nM
- TGI [36]: 2010 nM
- GI50 [37]: 211 nM
- TGI [37]: 9750 nM
- GI50 [38]: 132 nM
- TGI [38]: 1460 nM
- GI50 [39]: 818 nM
- TGI [39]: 2760 nM
- GI50 [40]: < 10 nM
- TGI [40]: 1310 nM
- GI50 [41]: 127 nM
- TGI [41]: 5850 nM
- GI50 [42]: 227 nM
- TGI [42]: 3260 nM
- GI50 [43]: 794 nM
- TGI [43]: 20300 nM
- GI50 [44]: 289 nM
- TGI [44]: 22700 nM
- GI50 [45]: 2180 nM
- TGI [45]: 26700 nM
- GI50 [46]: < 19.2 nM
- TGI [46]: 1180 nM
- GI50 [47]: 54.1 nM
- TGI [47]: 1700 nM
